According to US20030158254A1, “Engineering absorption of therapeutic compounds via colonic transporters” (XenoPort, Inc., priority 2002, published 2003):

What was measured:
rat PEPT1 = target: T1, rat PEPT1 (Rattus norvegicus, UniProt P51574); experiment: Electrogenic transport (induced current) in Xenopus oocytes transfected with rat PEPT1; assay type: cell-based
T1 construct: Rat and human PEPT1 and PEPT2 transporter cDNAs were subcloned into a modified pGEM plasmid; expressed in transfected cells; host or cells: Xenopus laevis oocytes injected with in vitro transcribed RNA
T1 sequence (P51574 1-710): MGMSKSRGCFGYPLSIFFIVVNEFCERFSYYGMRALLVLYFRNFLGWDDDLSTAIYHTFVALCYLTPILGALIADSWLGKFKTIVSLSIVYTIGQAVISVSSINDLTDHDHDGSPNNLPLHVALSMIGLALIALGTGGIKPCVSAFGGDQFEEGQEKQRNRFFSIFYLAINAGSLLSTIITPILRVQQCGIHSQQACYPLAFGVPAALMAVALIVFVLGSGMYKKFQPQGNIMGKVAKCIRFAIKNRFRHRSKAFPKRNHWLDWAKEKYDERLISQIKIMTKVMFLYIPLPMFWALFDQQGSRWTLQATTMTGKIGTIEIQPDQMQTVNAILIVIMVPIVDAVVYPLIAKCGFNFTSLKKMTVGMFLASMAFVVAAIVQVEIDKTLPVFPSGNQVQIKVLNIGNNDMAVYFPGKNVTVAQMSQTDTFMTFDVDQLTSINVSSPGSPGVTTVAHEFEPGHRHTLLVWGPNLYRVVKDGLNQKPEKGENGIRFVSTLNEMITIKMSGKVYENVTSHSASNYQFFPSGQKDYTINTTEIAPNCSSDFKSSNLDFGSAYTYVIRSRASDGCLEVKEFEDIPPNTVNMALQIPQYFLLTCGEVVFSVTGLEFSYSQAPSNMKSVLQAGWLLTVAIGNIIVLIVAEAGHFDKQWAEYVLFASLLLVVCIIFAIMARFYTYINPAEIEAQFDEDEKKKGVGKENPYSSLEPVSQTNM
Experimental: (§1) Rat and human PEPT1 and PEPT2 expressing CHO cell lines were prepared as described in PCT Application WO01/20331. Gabapentin-containing dipeptides were evaluated for interaction with the peptide transporters using a radiolabeled substrate uptake assay in a competitive inhibition format, as described in PCT Application WO01/20331. Transport-induced currents were also measured in Xenopus oocytes transfected with rat and human PEPT1 and PEPT2.
(§2) RNA preparation: Rat and human PEPT1 and PEPT2 transporter cDNAs were subcloned into a modified pGEM plasmid that contains 5′ and 3′ untranslated sequences from the Xenopus β-actin gene. These sequences increase RNA stability and protein expression. Plasmid cDNA was linearized and used as template for in vitro transcription (Epicentre Technologies transcription kit, 4:1 methylated:non-methylated guanosine triphosphate(GTP)).
(§3) Xenopus oocyte isolation. Xenopus laevis frogs were anesthetized by immersion in Tricaine ([…] in deionized water) for 15 min. […]
(§4) Electrophysiology measurements. Transport currents were measured 2-14 days after injection, using a standard two-electrode electrophysiology set-up (Geneclamp 500 amplifier, Digidata 1320/PCLAMP software and ADInstruments hardware and software were used for signal acquisition). […]

human PEPT1 = target: T2, human PEPT1 (Homo sapiens, UniProt P46059); experiment: Electrogenic transport (induced current) in Xenopus oocytes transfected with human PEPT1; assay type: cell-based
T2 construct: Rat and human PEPT1 and PEPT2 transporter cDNAs were subcloned into a modified pGEM plasmid; expressed in transfected cells; host or cells: Xenopus laevis oocytes injected with in vitro transcribed RNA
T2 sequence (P46059 1-708): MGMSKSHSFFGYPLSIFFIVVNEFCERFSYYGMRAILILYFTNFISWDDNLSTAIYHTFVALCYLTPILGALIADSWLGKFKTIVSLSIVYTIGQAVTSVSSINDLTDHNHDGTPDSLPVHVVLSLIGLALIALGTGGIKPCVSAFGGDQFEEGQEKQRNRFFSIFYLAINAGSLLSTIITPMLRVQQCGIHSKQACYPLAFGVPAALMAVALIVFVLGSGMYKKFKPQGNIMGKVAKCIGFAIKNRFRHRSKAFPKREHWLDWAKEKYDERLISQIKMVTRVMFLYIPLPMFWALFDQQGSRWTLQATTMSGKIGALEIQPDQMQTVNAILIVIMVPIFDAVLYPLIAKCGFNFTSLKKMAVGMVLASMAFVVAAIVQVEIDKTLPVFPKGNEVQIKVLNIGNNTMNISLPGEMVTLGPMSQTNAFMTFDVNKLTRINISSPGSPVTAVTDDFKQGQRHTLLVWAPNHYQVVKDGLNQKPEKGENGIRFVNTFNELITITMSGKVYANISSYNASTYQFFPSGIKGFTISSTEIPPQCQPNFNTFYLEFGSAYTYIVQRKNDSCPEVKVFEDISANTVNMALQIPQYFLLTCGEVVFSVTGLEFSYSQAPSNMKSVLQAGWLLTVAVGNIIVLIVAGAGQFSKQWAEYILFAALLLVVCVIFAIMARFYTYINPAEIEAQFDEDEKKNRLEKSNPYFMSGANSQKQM
Experimental: as §1, §2, §3, §4

CC(C)(N)C(=O)NCC1(CC(=O)O)CCCCC1 [Compound V, a-aminoisobutyryl gabapentin]
Vmax relative to reference substrate Gly-Sar (rat PEPT1; 1 mM, oocytes transfected with rat PEPT1): 50% | Vmax relative to Gly-Sar in the presence of PEPT inhibitor Lys(ε-Dansyl)-Leu (rat PEPT1; rat PEPT transfected oocytes, with Lys(ε-Dansyl)-Leu): < 5% | Vmax relative to reference substrate Gly-Sar (human PEPT1; 1 mM, oocytes transfected with human PEPT1): 66% | Vmax relative to Gly-Sar in the presence of PEPT inhibitor Lys(ε-Dansyl)-Leu (human PEPT1; human PEPT transfected oocytes, with Lys(ε-Dansyl)-Leu): < 5%
